Experimental data reported in article PMC9989278, “Characterization of substrates and inhibitors of the human heterodimeric transporter 4F2hc-LAT1 using purified protein and the scintillation proximity radioligand binding assay” (Frontiers in Physiology, 2023).
Values belong to the molecule of their own block, whether it stands above or below them.

Biological target: T1, human 4F2hc-LAT1 (Homo sapiens, UniProt Q01650)
T1 construct: Strep-tag (N); made in house; host or cells: Pichia pastoris strain KM71H
T1 sequence (Q01650 whole entry): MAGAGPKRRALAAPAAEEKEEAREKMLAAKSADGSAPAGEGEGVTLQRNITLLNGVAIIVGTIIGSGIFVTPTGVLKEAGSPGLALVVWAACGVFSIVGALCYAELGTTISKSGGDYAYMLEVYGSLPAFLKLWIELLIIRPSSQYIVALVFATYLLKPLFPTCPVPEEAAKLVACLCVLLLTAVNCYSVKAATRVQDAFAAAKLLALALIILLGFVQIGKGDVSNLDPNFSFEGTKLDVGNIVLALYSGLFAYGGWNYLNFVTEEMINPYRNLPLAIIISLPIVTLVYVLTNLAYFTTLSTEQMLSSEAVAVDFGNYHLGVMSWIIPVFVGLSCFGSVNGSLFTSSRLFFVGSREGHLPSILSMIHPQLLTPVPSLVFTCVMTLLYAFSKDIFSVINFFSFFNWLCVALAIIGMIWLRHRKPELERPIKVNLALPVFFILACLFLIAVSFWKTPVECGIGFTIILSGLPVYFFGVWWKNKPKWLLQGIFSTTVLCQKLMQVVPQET
T1 sequence (P08195 102-630 partner): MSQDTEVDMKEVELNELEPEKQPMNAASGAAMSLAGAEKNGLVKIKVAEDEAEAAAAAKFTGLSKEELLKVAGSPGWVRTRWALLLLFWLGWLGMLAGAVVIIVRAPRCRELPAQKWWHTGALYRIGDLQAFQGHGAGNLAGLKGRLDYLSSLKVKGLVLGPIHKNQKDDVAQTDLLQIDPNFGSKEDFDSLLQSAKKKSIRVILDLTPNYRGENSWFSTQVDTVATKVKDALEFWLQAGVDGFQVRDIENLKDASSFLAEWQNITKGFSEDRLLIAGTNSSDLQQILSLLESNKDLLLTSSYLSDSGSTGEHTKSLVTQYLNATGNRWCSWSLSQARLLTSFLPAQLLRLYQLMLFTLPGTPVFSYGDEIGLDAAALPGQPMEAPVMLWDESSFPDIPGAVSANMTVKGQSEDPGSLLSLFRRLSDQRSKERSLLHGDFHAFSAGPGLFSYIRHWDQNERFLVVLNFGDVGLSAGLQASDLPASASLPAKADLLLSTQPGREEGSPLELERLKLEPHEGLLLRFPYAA
Experiment: Scintillation proximity radioligand binding assay (SPA), [3H]L-leucine competition on purified protein
Conditions: for Binding of [3H]L-Leucine (%), residual radioligand binding / Binding of [3H]L-Leucine (%), residual radioligand binding (RRB): normalized to control without competitor; for Binding of [3H]L-Leucine (%), residual radioligand binding: mean of three experiments
Description: Purified, GDN-solubilized human 4F2hc-LAT1 was attached via the His-tag to polyvinyltolune (PVT) copper His-tag SPA beads (Perkin Elmer) and the protein-bound [^3H]L-leucine quantified using a scintillation counter (a detailed description of SPA with 4F2hc-LAT1 is given in the methodological publication by ([Kantipudi et al., 2021])). Briefly, experiments were conducted in 96-well plates and per well a reaction volume of 50 µL containing 250 µg PVT-SPA-beads, 1.75 µg 4F2hc-LAT1 protein, 2.5 μM L-leucine spiked with 0.5 µCi [^3H]L-leucine (ARC/Anawa, 100 Ci/mmol, 1 mCi/ml) plus a condition-specific substance. All components were dissolved in SPA-Buffer (100 mM BTP pH 8, 150 mM NaCl, 10% (v/v) glycerol, 0.5% (w/v) GDN). For some condition-specific substances (i.e., the thyroid hormones), 20 min sonication in a water bath at 4°C was necessary to dissolve them at 10× concentration in SPA-Buffer. Per reaction, 5 µL of a 10× stock solution of the condition-specific substance was placed in a well and diluted with 45 µL of a master mix containing the remaining components. For determining the substrate specificities (Figure 1), the twenty proteogenic L-amino acids and D-leucine were used as competitors at a final concentration of 250 µM. For determining the K D of L-leucine (Figure 2A) and K i of L-histidine (Figure 2B), homologous (L-leucine) and heterologous (L-histidine) substrate competition was applied at concentrations ranging from 0.01 to 1600 µM. […] The binding specificities of structural analogues of L-leucine (Figure 3) and L-histidine (Figure 4) were tested at a final competitor concentration of 250 µM. […] To avoid minor unspecific binding of radioactive L-leucine to the beads, the master mix was created in a specific procedure: SPA-beads were first mixed with the unlabeled L-leucine and shaken for 2 h at 4°C before adding the remaining components (protein last). For background subtraction in the bar graph experiments, a no-protein control was included using protein-free master mix (i.e., containing buffer instead of protein solution). The plate was shortly mixed by shaking and incubated at 4°C for ∼18 h before the signals were counted using a microplate scintillation counter (Trilux Microbeta, Perkin Elmer). […] Three experiments with protein from at least two different purifications were performed, each at least in triplicates.
Data were analyzed with Prism 6 (GraphPad Software). […] Each experiment was done with sample number of at least three (triplicate). Data of three independent experiments were merged by adding the normalized data to a common data set, which was used for curve fitting. For data analysis of the bar graphs, the signal of the no-protein control was subtracted from the transporter signal to obtain the net binding signal.

[1] = Figure 3, L-leucine analogues, competitor 250 µM
[2] = Figure 4, L-histidine analogues, competitor 250 µM

SMILES: CSCC[C@H](N)C(=O)O [Met]
Binding of [3H]L-Leucine (%), residual radioligand binding (Figure 1, competitor 250 µM): 36%

Binding of [3H]L-Leucine (%), residual radioligand binding (RRB) [1]: 62%
SMILES: CCCC[C@H](N)C(=O)O [L-Norleucine, L-norleucine]

Binding of [3H]L-Leucine (%), residual radioligand binding (RRB) [2]: 103% | binding / inhibition of [3H]L-leucine binding to 4F2hc-LAT1, in words (competitor 250 µM): no significant binding
SMILES: CN[C@@H](Cc1c[nH]cn1)C(=O)O [N-Methyl L-Histidine, N-methyl-L-histidine]

Binding of [3H]L-Leucine (%), residual radioligand binding (Figure 1, competitor 250 µM): 29%
SMILES: NC(=O)CC[C@H](N)C(=O)O [Gln, L-glutamine]

Binding of [3H]L-Leucine (%), residual radioligand binding (Figure 1, competitor 250 µM): 52% | inhibition of [3H]L-leucine binding (competitor 250 µM, Figure 1): about 50%
SMILES: CC(C)C[C@@H](N)C(=O)O [D-Leu, D-leucine]

Binding of [3H]L-Leucine (%), residual radioligand binding (RRB) [1]: 37% | Binding of [3H]L-Leucine (%), residual radioligand binding (RRB) (Figure 3, L-leucine analogues, competitor 250 µM, listed as L-tert-leucine): 37–45%
SMILES: CC(C)(C)[C@H](N)C(=O)O [L-tert-Leucine, L-tert-leucine]

Binding of [3H]L-Leucine (%), residual radioligand binding (RRB) [2]: 59% | Binding of [3H]L-Leucine (%), residual radioligand binding (RRB) (Figure 4, L-histidine analogues, competitor 250 µM, listed as 1-methyl-L-histidine): 59–64%
SMILES: Cn1cnc(C[C@H](N)C(=O)O)c1 [1-Methyl L-Histidine, 1-methyl-L-histidine]

Binding of [3H]L-Leucine (%), residual radioligand binding (Figure 1, competitor 250 µM): 90%
SMILES: N[C@@H](CCC(=O)O)C(=O)O [Glu]

SMILES: C[C@H](N)C(=O)O [Ala]
Binding of [3H]L-Leucine (%), residual radioligand binding (Figure 1, competitor 250 µM): 36%

Binding of [3H]L-Leucine (%), residual radioligand binding (RRB) [1]: 32% | Binding of [3H]L-Leucine (%), residual radioligand binding (RRB) (Figure 3, L-leucine analogues, competitor 250 µM, listed as L-norvaline): 32–43%
SMILES: CCC[C@H](N)C(=O)O [L-Norvaline, L-norvaline]

Binding of [3H]L-Leucine (%), residual radioligand binding (Figure 1, competitor 250 µM): 46%
SMILES: N[C@@H](CO)C(=O)O [Ser]

SMILES: N=C(N)NCCC[C@H](N)C(=O)O [Arg]
Binding of [3H]L-Leucine (%), residual radioligand binding (Figure 1, competitor 250 µM): 68%

SMILES: NC(=O)C[C@H](N)C(=O)O [Asn]
Binding of [3H]L-Leucine (%), residual radioligand binding (Figure 1, competitor 250 µM): 35%

Binding of [3H]L-Leucine (%), residual radioligand binding (Figure 1, competitor 250 µM): 19-29% | Binding of [3H]L-Leucine (%), residual radioligand binding (Figure 1, competitor 250 µM, listed as Ile): 22% | Binding of [3H]L-Leucine (%), residual radioligand binding (RRB) [1]: 28%
SMILES: CC[C@H](C)[C@H](N)C(=O)O [L-Isoleucine, L-isoleucine]

SMILES: NC(Cc1cc(I)c(Oc2cc(I)c(O)c(I)c2)c(I)c1)C(=O)O (stereo not drawn) [T4, thyroxine]
Ki: 10 µM

SMILES: N[C@@H](Cc1c[nH]c2ccccc12)C(=O)O [Trp, L-tryptophan]
Binding of [3H]L-Leucine (%), residual radioligand binding (Figure 1, competitor 250 µM): 21% | Binding of [3H]L-Leucine (%), residual radioligand binding (Figure 1, competitor 250 µM, listed as L-tryptophan): 19-29%

Binding of [3H]L-Leucine (%), residual radioligand binding (Figure 1, competitor 250 µM): 19-29% | Binding of [3H]L-Leucine (%), residual radioligand binding (Figure 1, competitor 250 µM, listed as Val): 19% | Binding of [3H]L-Leucine (%), residual radioligand binding (RRB) [1]: 27%
SMILES: CC(C)[C@H](N)C(=O)O [L-Valine, L-valine]
